Source: publication PMC2680961, “Homologous desensitization of signalling by the alpha (α) isoform of the human thromboxane A2 receptor: A specific role for nitric oxide signalling” (Biochimica et Biophysica Acta, 2007)

Experiments:
[1] = molecular target: T1, TPβ^WT (Homo sapiens, UniProt P21731); assay: [3H]SQ29,548 radioligand binding, Scatchard analysis, HEK.TPβ^WT
T1 construct: expressed in transfected cells
Method: (§1) Cells were harvested by centrifugation at 500×g at 4 °C for 5 min and washed three times with ice-cold Ca^2+/Mg^2+-free phosphate-buffered saline (PBS). TP radioligand binding assays were carried out at 30 °C for 30 min in 100 μl reactions in the presence of 0–40 nM [^3H] […] Protein determinations were carried out using the Bradford assay.
(§2) Radioligand binding and Scatchard analysis data were analysed using GraphPad Prisim V4.0 programme (GraphPad Software Inc., San Diego CA, USA). Statistical analyses were carried out using the unpaired Student's t test using the Statworks Analysis Package. p-values ≤ 0.01 indicated statistically significant differences.

[2] = molecular target: T2, TPα^Δ336 (Homo sapiens, UniProt P21731); assay: [3H]SQ29,548 radioligand binding, Scatchard analysis, HEK.TPα^Δ336
T2 construct: expressed in transfected cells
T2 sequence (P21731 1-335): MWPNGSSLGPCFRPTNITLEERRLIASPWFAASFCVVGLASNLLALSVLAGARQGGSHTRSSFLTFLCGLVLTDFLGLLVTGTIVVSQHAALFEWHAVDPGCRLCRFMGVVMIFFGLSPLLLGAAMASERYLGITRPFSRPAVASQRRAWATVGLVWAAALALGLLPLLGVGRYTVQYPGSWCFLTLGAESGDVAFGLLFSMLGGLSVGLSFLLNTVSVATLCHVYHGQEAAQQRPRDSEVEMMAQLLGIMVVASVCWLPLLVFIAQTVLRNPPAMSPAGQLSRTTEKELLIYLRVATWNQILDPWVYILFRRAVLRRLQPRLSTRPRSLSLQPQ
Method: as §1, §2

[3] = molecular target: T3, TPα^S239A (Homo sapiens, UniProt P21731, S239A); assay: [3H]SQ29,548 radioligand binding, Scatchard analysis, HEK.TPα^S239A
T3 construct: expressed in transfected cells
T3 sequence (P21731 1-343 S239A): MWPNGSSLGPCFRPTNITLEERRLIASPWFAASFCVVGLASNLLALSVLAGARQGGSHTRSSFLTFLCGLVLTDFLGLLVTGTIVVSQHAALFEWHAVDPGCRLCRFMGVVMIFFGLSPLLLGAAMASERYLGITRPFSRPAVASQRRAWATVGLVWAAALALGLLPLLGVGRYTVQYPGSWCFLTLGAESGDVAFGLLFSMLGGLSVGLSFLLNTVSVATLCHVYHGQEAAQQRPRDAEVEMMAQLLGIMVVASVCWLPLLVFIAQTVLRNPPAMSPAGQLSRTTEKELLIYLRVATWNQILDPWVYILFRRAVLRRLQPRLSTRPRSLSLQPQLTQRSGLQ
Method: as §1, §2

T1 sequence (P21731 1-407 isoform P21731-2): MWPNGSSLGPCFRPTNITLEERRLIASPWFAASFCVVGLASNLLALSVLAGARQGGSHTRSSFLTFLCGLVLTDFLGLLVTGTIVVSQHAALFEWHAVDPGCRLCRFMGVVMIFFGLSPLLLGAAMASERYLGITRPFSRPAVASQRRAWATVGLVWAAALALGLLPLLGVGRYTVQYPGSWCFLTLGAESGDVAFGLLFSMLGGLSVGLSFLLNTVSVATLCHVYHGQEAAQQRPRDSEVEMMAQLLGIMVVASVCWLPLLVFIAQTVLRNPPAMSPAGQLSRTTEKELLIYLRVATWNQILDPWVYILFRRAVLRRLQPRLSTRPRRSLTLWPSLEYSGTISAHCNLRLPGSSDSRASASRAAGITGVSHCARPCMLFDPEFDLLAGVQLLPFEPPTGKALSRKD

**Q.** Which results are given for O=C(O)CCC/C=C\C[C@@H]1[C@H](CNNC(=O)Nc2ccccc2)[C@H]2CC[C@@H]1O2 [SQ29,548]?
**A.** Bmax (pmol/mg protein ± S.E.M.) [1]: 3.64 ± 0.03 pmol/mg protein; Bmax (pmol/mg protein ± S.E.M.) [2]: 4.43 ± 0.04 pmol/mg protein; Bmax (pmol/mg protein ± S.E.M.) [3]: 4.35 ± 0.04 pmol/mg protein
